Experiment: mn = molality of the nth substance listed, in mol/kg
Conditions: 100 kPa, Liquid, Alternating current cell with electrodes

O [water] + CCCCCCCCCCCCCCCC[n+]1ccccc1.[Cl-]
m2 = 0
Conditions | electrical conductivity [S/m]
293.15 K | 0.0005
298.15 K | 0.00053
303.15 K | 0.00057
308.15 K | 0.00058

CCCCCCCCCCCCCCCC[n+]1ccccc1.[Cl-] [cetylpyridinium chloride] + O
electrical conductivity [S/m]
Conditions | m1 = 0.0002 | m1 = 0.0004 | m1 = 0.0006 | m1 = 0.0008 | m1 = 0.001 | m1 = 0.0012 | m1 = 0.0014 | m1 = 0.0016 | m1 = 0.0018 | m1 = 0.002
293.15 K | 0.00277 | 0.00503 | 0.0073 | 0.00906 | 0.0102 | 0.0112 | 0.012 | 0.0128 | 0.0138 | 0.0145
298.15 K | 0.00283 | 0.00513 | 0.00755 | 0.00982 | 0.0109 | 0.0118 | 0.0128 | 0.0139 | 0.0149 | 0.0158
303.15 K | 0.00302 | 0.00574 | 0.00831 | 0.011 | 0.0134 | 0.0148 | 0.016 | 0.0172 | 0.0184 | 0.0194
308.15 K | 0.00337 | 0.00645 | 0.00954 | 0.0126 | 0.0155 | 0.017 | 0.0183 | 0.0196 | 0.021 | 0.0223
